Where two headings read alike, the source gives them in different places.
How the values were obtained:
DGKzeta = DGKzeta (Homo sapiens, UniProt Q13574); test: In vitro DGK inhibition assay (ADP-Glo, liposomes), DGKzeta; type: biochemical; set-up: hDGKzeta(1-928)-N-His; His (N); made in house; host or cells: Sf21 insect cells (baculovirus); settings: 2 nM DGK ζ, 50 μM ATP, 125 uM DLG in liposomes, 1 hour reaction
Summary of the method: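 DGKζ (2 nM) phosphorylated DLG presented in DLG/PS/PC liposomes (final DLG 125 μM) with 50 μM ATP for 1 hour. ADP formed was read by ADP-Glo luminescence. Compounds were tested as 11-point 1:3 dose responses in 2% final DMSO.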

primary human T-cells = test: T-cell proliferation assay (CellTiter-Glo); type: cell-based; settings: CD3 condition; for Emax / Emax proliferation (% activation): 5 days, 20 μM reference compound A1 = 100%; for Emax: read-out: Emax proliferation (% activation); for EC50: proliferation after 5 days, CellTiter-Glo, read-out: Tcell Proliferation CD3 EC50
Summary of the method: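 Expanded primary human T-cells (100k/well) on plates coated with CD3 antibody or PBS only, given a 5- or 6-point dose response (top 20 or 10 μM final, 3.333-fold steps, 0.2% DMSO). ATP measured by CellTiter-Glo 2.0 luminescence after 5 days. Normalized to DMSO and 20 μM reference A1 (100%); EC50 and Emax reported for CD3 conditions.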

Chain of DGKzeta (Q13574 whole entry): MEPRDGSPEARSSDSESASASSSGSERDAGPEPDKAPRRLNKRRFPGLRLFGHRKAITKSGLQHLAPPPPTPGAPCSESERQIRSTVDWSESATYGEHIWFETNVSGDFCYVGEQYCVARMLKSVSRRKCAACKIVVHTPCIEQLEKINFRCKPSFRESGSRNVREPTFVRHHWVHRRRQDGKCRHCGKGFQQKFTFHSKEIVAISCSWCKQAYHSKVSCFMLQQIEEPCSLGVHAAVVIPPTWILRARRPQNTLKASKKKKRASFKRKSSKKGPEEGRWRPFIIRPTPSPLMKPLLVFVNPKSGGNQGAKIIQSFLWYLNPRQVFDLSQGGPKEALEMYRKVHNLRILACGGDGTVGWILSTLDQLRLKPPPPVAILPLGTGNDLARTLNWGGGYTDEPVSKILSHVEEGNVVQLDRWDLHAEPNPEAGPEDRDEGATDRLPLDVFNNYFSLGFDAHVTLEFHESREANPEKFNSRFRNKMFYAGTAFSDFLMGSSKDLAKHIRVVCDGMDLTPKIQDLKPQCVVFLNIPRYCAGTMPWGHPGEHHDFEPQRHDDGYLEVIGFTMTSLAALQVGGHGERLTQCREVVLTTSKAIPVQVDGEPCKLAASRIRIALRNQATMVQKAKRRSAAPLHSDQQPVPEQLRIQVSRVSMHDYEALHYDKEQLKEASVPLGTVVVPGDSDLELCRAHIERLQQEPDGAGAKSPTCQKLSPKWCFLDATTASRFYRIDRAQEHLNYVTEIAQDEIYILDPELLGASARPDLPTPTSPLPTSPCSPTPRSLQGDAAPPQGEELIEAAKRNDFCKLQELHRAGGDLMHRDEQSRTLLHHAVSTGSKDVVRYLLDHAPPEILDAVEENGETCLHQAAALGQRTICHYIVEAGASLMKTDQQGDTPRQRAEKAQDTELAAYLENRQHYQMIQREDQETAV

Row | IC50 (DGKzeta) [nM] | SMILES | Emax (primary human T-cells; Homo sapiens, T-cell, 120 h) [%] | EC50 (primary human T-cells; Homo sapiens, T-cell, 120 h) [nM] | Emax proliferation (% activation) (primary human T-cells) [%] | EC50 (primary human T-cells) [nM]
1 | 8370 | CN(C)S(=O)(=O)C(C)(C)c1nnc(-c2ccc3c(c2)N(Cc2ccc(-c4ccc(C(F)(F)F)cc4)cc2)C(=O)[C@@H](N)CS3(=O)=O)o1 [Example 65, 2-[5-[(3R)-3-amino-1,1,4-trioxo-5-[[4-[4-(trifluoromethyl)phenyl]phenyl]methyl]-2,3-dihydro-1λ6,5-benzothiazepin-7-yl]-1,3,4-oxadiazol-2-yl]-N,N-dimethyl-propane-2-sulfonamide] | 155 | 2620 | – | –
2 | 256 | CC(C)(c1nc(-c2cc3c(cc2F)S(=O)(=O)C[C@H](N)C(=O)N3Cc2ccc(-c3noc(C(F)(F)F)n3)cc2)no1)S(C)(=O)=O [Example 46, (3R)-3-amino-8-fluoro-7-[5-(1-methyl-1-methylsulfonyl-ethyl)-1,2,4-oxadiazol-3-yl]-1,1-dioxo-5-[[4-[5-(trifluoromethyl)-1,2,4-oxadiazol-3-yl]phenyl]methyl]-2,3-dihydro-1λ6,5-benzothiazepin-4-one] | 185 | 135 | – | –
3 | 371 | CC(C)(c1nc(-c2cc3c(cc2F)[S+]([O-])C[C@H](N)C(=O)N3Cc2ccc(Oc3ccccc3)cc2)no1)S(C)(=O)=O (stereo partly drawn) [Example 51, (3R)-3-amino-8-fluoro-7-[5-(1-methyl-1-methylsulfonyl-ethyl)-1,2,4-oxadiazol-3-yl]-1-oxo-5-[(4-phenoxyphenyl)methyl]-2,3-dihydro-1λ4,5-benzothiazepin-4-one] | – | – | 67 | > 10000
4 | 468 | CC(C)(c1nnc(-c2ccc3c(c2)N(Cc2ccc(Oc4cccc(OC(F)F)c4)cc2)C(=O)[C@@H](N)CS3(=O)=O)o1)S(C)(=O)=O [Example 47, (3R)-3-amino-5-[[4-[3-(difluoromethoxy)phenoxy]phenyl]methyl]-7-[5-(1-methyl-1-methylsulfonyl-ethyl)-1,3,4-oxadiazol-2-yl]-1,1-dioxo-2,3-dihydro-1λ6,5-benzothiazepin-4-one] | 156 | 351 | – | –
5 | 419 | CC(C)(c1nc(-c2cc3c(cc2F)[S+]([O-])C[C@H](N)C(=O)N3Cc2ccc(Oc3ccccc3)cc2)no1)S(C)(=O)=O (stereo partly drawn) [Example 52, (3R)-3-amino-8-fluoro-7-[5-(1-methyl-1-methylsulfonyl-ethyl)-1,2,4-oxadiazol-3-yl]-1-oxo-5-[(4-phenoxyphenyl)methyl]-2,3-dihydro-1λ4,5-benzothiazepin-4-one] | – | – | 181 | 978
6 | 768 | CC(C)(c1nnc(-c2ccc3c(c2)N(Cc2ccc(Oc4ccccc4)cc2)C(=O)[C@@H](N)CS3(=O)=O)o1)S(=O)(=O)C1CC1 [Example 61, (3R)-3-amino-7-[5-(1-cyclopropylsulfonyl-1-methyl-ethyl)-1,3,4-oxadiazol-2-yl]-1,1-dioxo-5-[(4-phenoxyphenyl)methyl]-2,3-dihydro-1λ6,5-benzothiazepin-4-one] | 58 | 4560 | – | –
7 | 8950 | CC(C)(c1nnc(-c2ccc3c(c2)N(Cc2ccc(-c4ccc(C(F)(F)F)cc4)nc2)C(=O)[C@@H](N)CS3(=O)=O)o1)S(C)(=O)=O [Example 57, (3R)-3-amino-7-[5-(1-methyl-1-methylsulfonyl-ethyl)-1,3,4-oxadiazol-2-yl]-1,1-dioxo-5-[[6-[4-(trifluoromethyl)phenyl]-3-pyridyl]methyl]-2,3-dihydro-1λ6,5-benzothiazepin-4-one] | 65 | 1110 | – | –
8 | 826 | CC(C)(c1nnc(-c2ccc3c(c2)N(Cc2ccc(-c4ccc(OC(F)(F)F)cn4)cc2)C(=O)[C@@H](N)CS3(=O)=O)o1)S(C)(=O)=O [Example 69, (3R)-3-amino-1,1-diketo-7-[5-(1-mesyl-1-methyl-ethyl)-1,3,4-oxadiazol-2-yl]-5-[4-[5-(trifluoromethoxy)-2-pyridyl]benzyl]-2,3-dihydro-1λ6,5-benzothiazepin-4-one] | 91 | 31 | – | –
9 | 98 | CC(C)(c1nc(-c2cc3c(cc2F)S(=O)(=O)C[C@H](N)C(=O)N3Cc2ccc(-c3noc(C4CC4)n3)cc2)no1)S(C)(=O)=O [Example 45, (3R)-3-amino-5-[[4-(5-cyclopropyl-1,2,4-oxadiazol-3-yl)phenyl]methyl]-8-fluoro-7-[5-(1-methyl-1-methylsulfonyl-ethyl)-1,2,4-oxadiazol-3-yl]-1,1-dioxo-2,3-dihydro-1λ6,5-benzothiazepin-4-one] | 260 | 235 | – | –

The next lines start with the molecule.

Row | SMILES | IC50 (DGKzeta) [nM] | Emax (primary human T-cells; Homo sapiens, T-cell, 120 h) [%] | EC50 (primary human T-cells; Homo sapiens, T-cell, 120 h) [nM] | Emax proliferation (% activation) (primary human T-cells) [%] | EC50 (primary human T-cells) [nM]
10 | CC(C)(c1nnc(-c2ccc3c(c2)N(Cc2ccc(OCCC(F)(F)F)cc2)C(=O)[C@@H](N)CS3(=O)=O)o1)S(C)(=O)=O [Example 23, (3R)-3-amino-7-[5-(1-methyl-1-methylsulfonyl-ethyl)-1,3,4-oxadiazol-2-yl]-1,1-dioxo-5-[[4-(3,3,3-trifluoropropoxy)phenyl]methyl]-2,3-dihydro-1λ6,5-benzothiazepin-4-one] | 1260 | 79 | 4540 | – | –
11 | CN(Cc1ccccc1)c1ccc(CN2C(=O)[C@@H](N)CS(=O)(=O)c3ccc(-c4nnc(C(C)(C)S(C)(=O)=O)o4)cc32)cc1 [Example 15, (3R)-3-amino-5-[[4-[benzyl(methyl)amino]phenyl]methyl]-7-[5-(1-methyl-1-methylsulfonyl-ethyl)-1,3,4-oxadiazol-2-yl]-1,1-dioxo-2,3-dihydro-1λ6,5-benzothiazepin-4-one] | 8030 | 85 | 2670 | – | –
12 | COc1cc(Cl)cc(Oc2ccc(CN3C(=O)[C@@H](N)CS(=O)(=O)c4ccc(-c5nnc(C(C)(C)S(C)(=O)=O)o5)cc43)cc2)c1 [Example 41, (3R)-3-amino-5-[[4-(3-chloro-5-methoxy-phenoxy)phenyl]methyl]-7-[5-(1-methyl-1-methylsulfonyl-ethyl)-1,3,4-oxadiazol-2-yl]-1,1-dioxo-2,3-dihydro-1λ6,5-benzothiazepin-4-one] | 2290 | 97 | 1710 | – | –
13 | Cc1cccc(Oc2ccc(CN3C(=O)[C@@H](N)CS(=O)(=O)c4ccc(-c5nnc(C(C)(C)S(C)(=O)=O)o5)cc43)cc2)c1 [Example 31] | 455 | 106 | 599 | – | –
14 | CC(C)(c1nnc(-c2ccc3c(c2)N(Cc2ccc(Oc4cccc(OC(F)(F)F)c4)cc2)C(=O)[C@@H](N)CS3(=O)=O)o1)S(C)(=O)=O [Example 40, (3R)-3-amino-7-[5-(1-methyl-1-methylsulfonyl-ethyl)-1,3,4-oxadiazol-2-yl]-1,1-dioxo-5-[[4-[3-(trifluoromethoxy)phenoxy]phenyl]methyl]-2,3-dihydro-126,5-benzothiazepin-4-one] | 893 | 148 | 903 | – | –
15 | CC(C)(c1nnc(-c2ccc3c(c2)N(Cc2ccc(OCC(F)(F)F)cc2)C(=O)[C@@H](N)CS3(=O)=O)o1)S(C)(=O)=O [Example 6, (3R)-3-amino-7-[5-(1-methyl-1-methylsulfonyl-ethyl)-1,3,4-oxadiazol-2-yl]-1,1-dioxo-5-[[4-(2,2,2-trifluoroethoxy)phenyl]methyl]-2,3-dihydro-1λ6,5-benzothiazepin-4-one] | 2050 | 62 | 5560 | – | –
16 | CC(C)(c1nnc(-c2ccc3c(c2)N(Cc2ccc(OC4CCCC4)cc2)C(=O)[C@@H](N)CS3(=O)=O)o1)S(C)(=O)=O [Example 16, (3R)-3-amino-5-[[4-(cyclopentoxy)phenyl]methyl]-7-[5-(1-methyl-1-methylsulfonyl-ethyl)-1,3,4-oxadiazol-2-yl]-1,1-dioxo-2,3-dihydro-1λ6,5-benzothiazepin-4-one] | 820 | 81 | 5360 | – | –
17 | CC(C)(c1nnc(-c2ccc3c(c2)N(Cc2ccc(Oc4cccc(Cl)c4)cc2)C(=O)[C@@H](N)CS3(=O)=O)o1)S(C)(=O)=O [Example 34, (3R)-3-amino-5-[[4-(3-chlorophenoxy)phenyl]methyl]-7-[5-(1-methyl-1-methylsulfonyl-ethyl)-1,3,4-oxadiazol-2-yl]-1,1-dioxo-2,3-dihydro-1λ6,5-benzothiazepin-4-one] | 1100 | 127 | 1270 | – | –
18 | CC(C)(c1nc(-c2cc3c(cc2F)S(=O)(=O)C[C@H](N)C(=O)N3Cc2ccc(Cl)cc2)no1)S(C)(=O)=O [Example 43, (3R)-3-amino-5-[(4-chlorophenyl)methyl]-8-fluoro-7-[5-(1-methyl-1-methylsulfonyl-ethyl)-1,2,4-oxadiazol-3-yl]-1,1-dioxo-2,3-dihydro-1λ6,5-benzothiazepin-4-one] | 192 | 153 | 75 | – | –
19 | CC(C)(c1nnc(-c2cc3c(cc2F)S(=O)(=O)C[C@H](N)C(=O)N3Cc2ccc(-c3ccc(C(F)(F)F)cc3)cc2)o1)S(C)(=O)=O [Example 35, (3R)-3-amino-8-fluoro-7-[5-(1-methyl-1-methylsulfonyl-ethyl)-1,3,4-oxadiazol-2-yl]-1,1-dioxo-5-[[4-[4-(trifluoromethyl)phenyl]phenyl]methyl]-2,3-dihydro-1λ6,5-benzothiazepin-4-one] | 649 | 164 | < 15 | – | –

From US20260035364A1, “BICYCLIC TETRAHYDROTHIAZEPINE DERIVATIVES” (Hoffmann-La Roche Inc., priority 2022, published 2026)
